Source: US20050020534A1, “Method for treating diseases using HSP90-inhibiting agents in combination with antimetabolites” (Kosan Biosciences, Inc., priority 2003, published 2005)
Like-named read-outs stand apart in the source and are kept apart here.

Experiments:
[1] = tested on: DLD-1 cells (human colorectal cancer cells); experiment: MTS cell viability assay, drug combination effect analysis (combination index) in DLD-1 cells; type: cell-based; settings: combination of antimetabolite with 17-AAG, CI<1 synergism, CI=1 additivity, CI>1 antagonism; for CI values, 17-AAG Pre-Administration: 17-AAG 24 hours before antimetabolite (48 hours); for CI values, 17-AAG Post-Administration: antimetabolite 24 hours, then 17-AAG for 48 hours
Experimental: Human colon adenocarcinoma cell line, DLD-1, and human breast adenocarcinoma cell line, SKBr-3, were obtained from American Type Culture Collection (manassas, Va.). […] Other cytotoxic agents were purchased commercially from suppliers such as Sigma Chemical Co. (St. Louis, Mo.) and Sequoia Research Products (Oxford, UK). Cells were seeded in duplicate in 96-well microtiter plates at a density of 5,000 cells per well and allowed to attach overnight. […] Cell viability was determined using the MTS assay (Promega). […] Based on the IC50 values of each individual drug, combined drug treatment was designed at constant ratios of two drugs, i.e., equivalent to the ratio of their IC50. Two treatment schedules were used: In one schedule, the cells were exposed to 24 hours of 17-AAG or 17-DMAG. The drug was then added to the cells and incubated for 48 hours. […] Cell viability was determined by the MTS assay. Synergism, additivity or antagonism was determined by median effect analysis using the combination index (CI) calculated using Calcusyn (Biosoft, Cambridge, UK). The combination index is defined as follows: […] The quantities [Dx]1 and [Dx]2 represent the concentrations of the first and second drug, respectively, that when used alone provide a response of x % in the assay. […] The “enhancing” effect of two drugs can also be determined.

[2] = tested on: SKBr cells (human breast cancer cells); experiment: MTS cell viability assay, drug combination effect analysis (combination index) in SKBr-3 cells; type: cell-based; settings: combination of antimetabolite with 17-AAG, CI<1 synergism, CI=1 additivity, CI>1 antagonism; for CI values, 17-AAG Pre-Administration: 17-AAG 24 hours before antimetabolite (48 hours)
Experimental: Human colon adenocarcinoma cell line, DLD-1, and human breast adenocarcinoma cell line, SKBr-3, were obtained from American Type Culture Collection (manassas, Va.). […] Other cytotoxic agents were purchased commercially from suppliers such as Sigma Chemical Co. (St. Louis, Mo.) and Sequoia Research Products (Oxford, UK). Cells were seeded in duplicate in 96-well microtiter plates at a density of 5,000 cells per well and allowed to attach overnight. […] Cell viability was determined using the MTS assay (Promega). […] Based on the IC50 values of each individual drug, combined drug treatment was designed at constant ratios of two drugs, i.e., equivalent to the ratio of their IC50. Two treatment schedules were used: In one schedule, the cells were exposed to 24 hours of 17-AAG or 17-DMAG. The drug was then added to the cells and incubated for 48 hours. […] Cell viability was determined by the MTS assay. Synergism, additivity or antagonism was determined by median effect analysis using the combination index (CI) calculated using Calcusyn (Biosoft, Cambridge, UK). The combination index is defined as follows: […] The “enhancing” effect of two drugs can also be determined.

[3] = tested on: ErbB2 protein; experiment: Expression of ErbB2 protein in glioma cells; type: cell-based
[4] = tested on: ErbB2 protein; experiment: Expression of ErbB2 protein in SKBr3 cells; type: cell-based, human
[5] = clinical trials, sole therapeutic agent, cited from earlier work

Row | Structure (SMILES) | CI values, 17-AAG Pre-Administration [1] | CI values, 17-AAG Post-Administration [1] | CI values, 17-AAG Pre-Administration [2] | expression of ErbB2 protein [3] | expression of ErbB2 protein [4] | MTD ([5]; daily ×5 schedule) | MTD ([5]; once-weekly regimen) | MTD ([5]; twice-weekly regimen) | CI values, 17-AAG Post-Administration ([2]; antimetabolite 24 hours, then 17-AAG for 48 hours)
1 | O=c1[nH]cc(F)c(=O)[nH]1 [5-Fluorouracil, 5-fluorouracil] | 0.96 ± 0.16 | 0.33 ± 0.08 | 0.65 ± 0.48 | – | – | – | – | – | –
2 | C=CCNC1=C2C[C@@H](C)C[C@H](OC)[C@H](O)[C@@H](C)/C=C(\C)[C@H](OC(N)=O)[C@@H](OC)/C=C\C=C(/C)C(=O)NC(=CC1=O)C2=O [17-AAG, 17-(allylamino)-17-desmethoxygeldanamycin] | – | – | – | reduced the expression | reduced the expression | about 40 mg/m^2 | about 308 mg/m^2 | about 220 mg/m^2 | –
3 | CO[C@H]1/C=C\C=C(/C)C(=O)NC2=CC(=O)C(NCCN(C)C)=C(C[C@@H](C)C[C@H](OC)[C@H](O)[C@@H](C)/C=C(\C)[C@@H]1OC(N)=O)C2=O [17-DMAG, 17-(2-dimethylaminoethyl)amino-17-desmethoxygeldanamycin] | – | – | – | reduced the expression | reduced the expression | – | – | – | –
4 | Nc1ccn([C@@H]2O[C@H](CO)[C@@H](O)C2(F)F)c(=O)n1 [Gemcitabine, gemcitabine] | 0.45 ± 0.19 | 0.77 ± 0.23 | 1.79 ± 0.54 | – | – | – | – | – | 0.86 ± 0.19
5 | CN(Cc1cnc2nc(N)nc(N)c2n1)c1ccc(C(=O)N[C@@H](CCC(=O)O)C(=O)O)cc1 [Methotrexate, methotrexate] | 0.83 ± 0.14 | 0.71 ± 0.35 | – | – | – | – | – | – | –
